In the test the target is T1, α2-GABAA receptor (Homo sapiens, UniProt P18507+P47869).
T1 construct: expressed in transfected cells
T1 sequence (P47869 29-451): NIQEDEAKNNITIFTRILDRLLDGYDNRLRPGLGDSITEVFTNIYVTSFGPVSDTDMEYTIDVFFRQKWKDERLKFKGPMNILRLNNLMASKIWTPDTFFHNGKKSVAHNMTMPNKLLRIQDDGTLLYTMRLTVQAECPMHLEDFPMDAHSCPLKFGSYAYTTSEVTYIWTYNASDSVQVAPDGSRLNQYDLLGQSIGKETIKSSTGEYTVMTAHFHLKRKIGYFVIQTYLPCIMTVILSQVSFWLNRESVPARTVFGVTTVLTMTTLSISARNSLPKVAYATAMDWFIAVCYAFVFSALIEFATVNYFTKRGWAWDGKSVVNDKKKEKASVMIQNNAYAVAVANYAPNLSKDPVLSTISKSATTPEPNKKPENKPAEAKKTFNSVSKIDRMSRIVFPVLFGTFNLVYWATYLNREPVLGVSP
T1 sequence (P18507 40-467 isoform P18507-1 limits assumed): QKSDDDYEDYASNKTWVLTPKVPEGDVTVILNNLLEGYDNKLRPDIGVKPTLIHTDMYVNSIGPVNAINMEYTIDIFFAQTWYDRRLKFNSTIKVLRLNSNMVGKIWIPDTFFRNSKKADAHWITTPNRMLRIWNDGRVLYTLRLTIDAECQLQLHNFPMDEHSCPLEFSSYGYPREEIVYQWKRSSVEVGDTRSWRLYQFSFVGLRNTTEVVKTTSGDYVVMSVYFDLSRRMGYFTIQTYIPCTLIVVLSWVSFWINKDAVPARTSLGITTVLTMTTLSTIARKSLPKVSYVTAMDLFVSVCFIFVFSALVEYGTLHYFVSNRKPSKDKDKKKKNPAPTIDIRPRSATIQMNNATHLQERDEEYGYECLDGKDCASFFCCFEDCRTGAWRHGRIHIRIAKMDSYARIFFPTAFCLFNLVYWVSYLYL
T1 sequence (P28472 26-473 partner): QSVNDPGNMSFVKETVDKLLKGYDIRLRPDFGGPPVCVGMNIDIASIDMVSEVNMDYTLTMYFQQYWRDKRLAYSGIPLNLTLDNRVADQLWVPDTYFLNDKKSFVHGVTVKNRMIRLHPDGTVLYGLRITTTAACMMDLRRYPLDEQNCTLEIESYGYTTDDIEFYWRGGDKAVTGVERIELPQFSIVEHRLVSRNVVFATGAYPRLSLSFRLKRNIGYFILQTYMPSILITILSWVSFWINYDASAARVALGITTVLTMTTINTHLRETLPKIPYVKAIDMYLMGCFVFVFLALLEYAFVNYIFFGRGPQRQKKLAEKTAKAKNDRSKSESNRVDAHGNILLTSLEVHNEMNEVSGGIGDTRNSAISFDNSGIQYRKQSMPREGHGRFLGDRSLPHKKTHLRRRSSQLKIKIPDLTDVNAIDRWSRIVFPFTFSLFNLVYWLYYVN
In words: Whole-cell patch-clamp electrophysiology, positive allosteric modulatory activity in α2-GABAAR-HEK293 cells. Type of test: cell-based. To be noted: compound 100 nM; GABA 0.10 to 0.11 µM (approximately EC7-8); normalized to reference compound CVL-865 (= 100%); read-out: α2-GABAAR Positive allosteric modulatory activity. The text has this:
The α subunit, β subunit, and γ subunit are indispensable for forming a fully functional GABAA receptor. In this example, HEK293 cells stably expressing α2-GABAA receptors (α2-GABAAR) were constructed and screened respectively via liposome transfection (Felgner, P.L., et al. Proceedings of the National Academy of Sciences, 1987, 84: 7413-7417). The α2-GABAAR-HEK293 cell model co-expresses the α2 subunit (protein sequence referenced under GenBank accession number: NM_000807.4), β3 subunit (protein sequence referenced under GenBank accession number: NM_000814.5), and γ2 subunit (protein sequence referenced under GenBank accession number: NM_000816.3).
The above cell lines were subcultured. α2-GABAAR-HEK293 cells were amplified for testing the affinity of compounds to the benzodiazepine (BZD) site of GABAA receptors. Some of the α2-GABAAR-HEK293 cells in suspension during subculturing were plated on glass slides pre-treated with Poly-D-Lysine for electrophysiological testing (method reference: Patent CN 107344936 A, paragraph 0586).
The positive modulatory activity of the test drug on the α2-GABAA receptor was assessed using electrophysiological methods. The specific approach is as follows:
With regards to the concentration of the compound, the final concentration of all compounds used in the screening was 100 nM. For cell lines expressing α2-GABAA receptors, the GABA concentration was 0.10 to 0.11 µM (approximately EC7-8). Electrophysiological experiments were conducted using the whole-cell patch-clamp technique, which can be referenced to the method reported in the literature (Nickolls, S. A., et al. *British Journal of Pharmacology*, 2018, 175: 708-725). The composition of the extracellular solution (ECS) for electrophysiology was as follows: 150 mM NaCl, 5 mM KCl, 2.5 mM CaCl2, 1 mM MgCl2, 10 mM HEPES, and 10 mM glucose (pH 7.4). The intracellular solution (ICS) for electrophysiology was formulated as follows: 140 mM CsCl, 11 mM EGTA, 10 mM HEPES, 2 mM CaCl2, 1 mM MgCl2, 4 mM MgATP, and 2 mM TEA (pH 7.3). GABA (γ-aminobutyric acid) powder was dissolved in pure water to prepare a stock solution, which was subsequently diluted in ECS. The compound was initially dissolved in dimethyl sulfoxide to prepare a 4 mM stock solution, followed by stepwise dilution into GABA-ECS at corresponding concentrations. All solutions were freshly prepared prior to electrophysiological testing.
Electrophysiological signals were acquired using an EPC 10 amplifier and PatchMaster software (HEKA) or an Axon 700B amplifier and Clampex software (AXON). The recording electrode was pulled from borosilicate glass, with an electrode resistance of 4 to 6 MΩ. Extracellular administration was performed using the ALA-VC-8PG™ system. A single independently growing cell was selected. After forming a tight seal between the glass electrode and the cell membrane, the membrane was ruptured to establish the whole-cell configuration. The cell membrane potential was clamped at -60 mV and recorded in Gap-free mode. During the test, extracellular fluid was first applied externally for approximately 20 seconds. After the baseline (Iprebaseline) was stabilized, the extracellular solution was switched to GABA-ECS. At this point, the current induced by GABA (Igaba) can be detected. After approximately 10 to 20 seconds, once the current had stabilized, the extracellular solution was switched to a mixture of the compound and GABA-ECS until the current induced by both the compound and GABA (Itreatment) could be detected. Finally, the solution was switched to extracellular fluid, and the recording was terminated after 20 to 40 seconds. Only cells with a stable baseline, an absolute control current magnitude (Igaba - Iprebaseline) greater than 40 pA, and a relatively stable current within 10 to 20 seconds were used for compound testing. […]
A general note: In patch-clamp work, channel activity is measured electrically.
For `CCn1cnc2c(-c3ccc(F)c(-c4ccc(S(=O)(=O)CC)cc4OC)c3)cnnc21` [CVL-865, reference compound], the Emax at 0.1 µM stood at 100%.
Turning to `CCNC(=O)c1nc2c(-c3c(F)cccc3OC)cccn2c1N` [Example 2, 3-Amino-8-(2-fluoro-6-methoxyphenyl)-N-ethylimidazo[1,2-a]pyridine-2-carboxamide], the Emax at 0.1 µM was found to be 35%.
As for `COc1cccc(F)c1-c1cccn2c(N)c(C(=O)NC34CC(C3)C4)nc12` [Example 11, 3-Amino-N-(bicyclo[1.1.1]pent-1-yl)-8-(2-fluoro-6-methoxyphenyl)imidazo[1,2-a]pyridine-2-carboxamide], the Emax at 0.1 µM was determined as 27%.
Regarding `COc1cccc(F)c1-c1cccn2c(N)c(C(=O)Nc3ccccn3)nc12` [Example 14, 3-Amino-8-(2-fluoro-6-methoxyphenyl)-N-(pyridin-2-yl)imidazo[1,2-a]pyridine-2-carboxamide], the Emax at 0.1 µM was 54%.
The same measure for `COc1cccc(F)c1-c1cccn2c(N)c(C(=O)Nc3cnn(C)c3)nc12` [Example 15, 3-Amino-8-(2-fluoro-6-methoxyphenyl)-N-(1-methyl-1H-pyrazol-4-yl)imidazo[1,2-a]pyridine-2-carboxamide]: 61%.
Consider `COc1cccc(F)c1-c1cccn2c(N)c(C(=O)NCc3ccccn3)nc12` [Example 20, 3-Amino-8-(2-fluoro-6-methoxyphenyl)-N-(pyridin-2-methyl)imidazo[1,2-a]pyridine-2-carboxamide], for which the Emax at 0.1 µM turned out to be 35%.
With `COc1cccc(F)c1-c1cccn2c(N)c(C(=O)NCCc3ccccc3)nc12` [Example 21, 3-Amino-8-(2-fluoro-6-methoxyphenyl)-N-phenethylimidazo[1,2-a]pyridine-2-carboxamide] the figure was 43%; with `COc1cccc(F)c1-c1cccn2c(N)c(C(=O)NCCO)nc12` [Example 22, 3-Amino-8-(2-fluoro-6-methoxyphenyl)-N-(2-hydroxyethyl)imidazo[1,2-a]pyridine-2-carboxamide], 25%; with `COc1cccc(F)c1-c1cccn2c(N)c(C(=O)NCCCO)nc12` [Example 23, 3-Amino-8-(2-fluoro-6-methoxyphenyl)-N-(3-hydroxypropyl)imidazo[1,2-a]pyridine-2-carboxamide], 57%.
In the case of `COCCNC(=O)c1nc2c(-c3c(F)cccc3OC)cccn2c1N` [Example 24, 3-Amino-8-(2-fluoro-6-methoxyphenyl)-N-(2-methoxyethyl)imidazo[1,2-a]pyridine-2-carboxamide], the Emax at 0.1 µM turned out to be 39%.
With `C=CCNC(=O)c1nc2c(-c3c(F)cccc3OC)cccn2c1N` [Example 30, N-Allyl-3-amino-8-(2-fluoro-6-methoxyphenyl)imidazo[1,2-a]pyridine-2-carboxamide] the figure was 81%.
With `C#CCNC(=O)c1nc2c(-c3c(F)cccc3OC)cccn2c1N` [Example 31, N-Propargyl-3-amino-8-(2-fluoro-6-methoxyphenyl)imidazo[1,2-a]pyridine-2-carboxamide] the figure was 26%; with `CCCNC(=O)c1nc2c(-c3cccc(/C(C)=N/OC)c3)cccn2c1N` [Example 38, (E)-3-Amino-8-(3-(1-(methoxyimino)ethyl)phenyl)-N-propylimidazo[1,2-a]pyridine-2-carboxamide], 50%; with `CC#Cc1cccc(-c2cccn3c(N)c(C(=O)NCCC)nc23)c1` [Example 40, 3-Amino-8-(3-(prop-1-yn-1-yl)phenyl)-N-propylimidazo[1,2-a]pyridine-2-carboxamide], 25%.
With `CCCNC(=O)c1nc2c(-c3cccc(N4CCOC4=O)c3)cccn2c1N` [Example 41, 3-Amino-8-(3-(2-oxooxazolidin-3-yl)phenyl)-N-propylimidazo[1,2-a]pyridine-2-carboxamide] the figure was 30%.
Consider `CCCNC(=O)c1nc2c(-c3cccc(-c4ccnnc4)c3)cccn2c1N` [Example 44], for which the Emax at 0.1 µM amounted to 31%.
`CCCNC(=O)c1nc2c(-c3c(F)cccc3COC)cccn2c1N` [Example 65, 3-Amino-8-(2-fluoro-6-(methoxymethyl)phenyl)-N-propylimidazo[1,2-a]pyridine-2-carboxamide]: the Emax at 0.1 µM came to 36%.
The same measure for `CCCNC(=O)c1nc2c(-c3c(C#N)cccc3OC)cccn2c1N` [Example 73, 3-Amino-8-(2-cyano-6-methoxyphenyl)-N-propylimidazo[1,2-a]pyridine-2-carboxamide]: 64%.
As to `CCCNC(=O)c1nc2c(-c3c(F)cccc3SC)cccn2c1N` [Example 74, 3-Amino-8-(2-fluoro-6-(methylthio)phenyl)-N-propylimidazo[1,2-a]pyridine-2-carboxamide], the Emax at 0.1 µM is 73%.
For `CCCNC(=O)c1nc2c(-c3c(F)cccc3OC(F)(F)F)cccn2c1N` [Example 75, 3-Amino-8-(2-fluoro-6-(trifluoromethoxy)phenyl)-N-propylimidazo[1,2-a]pyridine-2-carboxamide], the Emax at 0.1 µM is 101%.
Turning to `CCCNC(=O)c1nc2c(-c3c(F)ccc(Cl)c3OC)cccn2c1N` [Example 80, 3-Amino-8-(2-fluoro-6-methoxyphenyl-5-chloro)-N-propylimidazo[1,2-a]pyridine-2-carboxamide], the Emax at 0.1 µM worked out at 77%.
As to `CCCNC(=O)c1nc2c(-c3cnc(OC)nc3OC)cccn2c1N` [Example 81, 3-Amino-8-(2,4-dimethoxypyrimidin-5-yl)-N-propylimidazo[1,2-a]pyridine-2-carboxamide], the Emax at 0.1 µM is 48%.
With `CCCNC(=O)c1nc2c(-c3ccnc(C)c3)cccn2c1N` [Example 86, 3-Amino-8-(2-methylpyridin-4-yl)-N-propylimidazo[1,2-a]pyridine-2-carboxamide], the Emax at 0.1 µM was determined as 73%.
With `CCCNC(=O)c1nc2c(-c3cncc(C)c3)cccn2c1N` [Example 87, 3-Amino-8-(5-methylpyridin-3-yl)-N-propylimidazo[1,2-a]pyridine-2-carboxamide], the Emax at 0.1 µM is 48%.
For the molecule `CCCNC(=O)c1nc2c(-c3cncc(C#N)c3)cccn2c1N` [Example 88, 3-Amino-8-(5-cyanopyridin-3-yl)-N-propylimidazo[1,2-a]pyridine-2-carboxamide], the Emax at 0.1 µM turned out to be 63%.
In the case of `CCCNC(=O)c1nc2c(-c3ccnc(C#N)c3)cccn2c1N` [Example 89, 3-Amino-8-(2-cyanopyridin-4-yl)-N-propylimidazo[1,2-a]pyridine-2-carboxamide], the Emax at 0.1 µM turned out to be 44%.
In the case of `CCCNC(=O)c1nc2c(-c3cccnc3F)cccn2c1N` [Example 90, 3-Amino-8-(2-fluoropyridin-3-yl)-N-propylimidazo[1,2-a]pyridine-2-carboxamide], the Emax at 0.1 µM was 60%.
For the molecule `CCCNC(=O)c1nc2c(-c3cc4c(cc3OC)N(C)CCO4)cccn2c1N` [Example 92, 3-Amino-8-(6-methoxy-4-methyl-3,4-dihydro-2H-benzo[b][1,4]oxazin-7-yl)-N-propylimidazo[1,2-a]pyridine-2-carboxamide], the Emax at 0.1 µM turned out to be 33%.
Take `CCCNC(=O)c1nc2c(-c3cc4oc(=O)n(C)c4cc3OC)cccn2c1N` [Example 93, 3-Amino-8-(5-methoxy-3-methyl-2-oxo-2,3-dihydrobenzo[d]oxazol-6-yl)-N-propylimidazo[1,2-a]pyridine-2-carboxamide]: the Emax at 0.1 µM stood at 62%.
`CCCNC(=O)c1nc2c(-c3cn4ccnc4cc3OC)cccn2c1N` [Example 94, 3'-Amino-7-methoxy-N-propyl-[6,8'-diimidazo[1,2-a]pyridine]-2'-carboxamide]: the Emax at 0.1 µM amounted to 51%.

The record behind these values is patent publication EP4703359A1 (Shanghai Simr Biotechnology Co., Ltd., priority 2023, dated 2024).
